These results are taken from patent publication US20150224164A1, “TREATMENT OF AUTISM SPECTRUM DISORDERS USING GLYCYL-L-2-METHYLPROLYL-L-GLUMATIC ACID” (Neuren Pharmaceuticals Limited, priority 2013, published 2015).

Where a SMILES comes first, the peptide text is derived from it.

Test [1] has as its system PCNA positive cells in the subventricular zone (SVZ). Put plainly: Neuroblast proliferation, PCNA positive cells in subventricular zone. The settings on record: 3 days. The class given is in vivo, rat. The method, then: To carry out these studies, tissues were fixed and embedded in paraffin and sections obtained using standard methods. Coronal sections (6 μm) containing the level of the hippocampus were cut and mounted on chrome-alum-coated slides for staining. The sections were deparaffinized in xylene, […] in a series of ethanol and incubated in 0.1 M phosphate buffered saline (PBS). Primary antibodies against glial fibrillary acidic protein (GFAP) and proliferating cell nuclear antigen (PCNA) were used to mark reactive glial cells and cells undergoing apoptosis and proliferation, respectively. For antigen unmasking (caspase-3 and PCNA staining), sections were heated in 10 mM sodium citrate buffer (pH 6.0) for 1 min at high power. All sections were pretreated with 1% H2O2 in 50% methanol for 30 min to quench the endogenous peroxidase activity. Then either 1.5% normal horse serum or 2.5% normal sheep serum in PBS was applied for 1 h at room temperature to block nonspecific background staining. […] The number of PCNA positive cells was counted in the subventricular zone and the GFAP positive cells was scored in the cerebral cortex. […] The number of PCNA positive cells was counted in the SVZ and the number of cells was then averaged as cells/mm depending on the length of ventricle wall used for counting (FIG. 19A). […]

The subject of a further test is MeCP2 knockout mice. Description: Nocturnal locomotor activity (Example 10). The test is classed as in vivo, mouse. The conditions noted are these: after 6 weeks; 20 mg/kg i.p. daily. The procedure:
Spontaneous motor activity is measured by using an infrared beam-activated movement-monitoring chamber (Opto-Varimax-MiniA; Columbus Instruments, Columbus, Ohio). For each experiment, a mouse is placed in the chamber at least 3 h before recordings started. Movement is monitored during the normal 12-h dark cycle (7 p.m. to 7 a.m.). One dark cycle per animal per time point is collected.

The test system of another test is Akt. Put plainly: Western blot of phosphorylated Akt. The class given is in vivo, mouse. The settings on record: fmr1 KO; 100 mg/kg 4 weeks; p<0.05. The procedure:
Phosphorylated Extracellular Signal-Regulated Protein Kinase (ERK) and Protein Kinase B (Akt) expression was measured by Western blot analysis in lymphocytes from fmr1 KO and wild-type animals administered ether vehicle or G-2MePE (100 mg/kg, i.p.; 28 days) treated in the behavior experiments as previously described (Lopez Verrilli et al. 2009). ERK is a classical MAPK signal transduction protein, responsible for growth factor transduction, proliferation, cytokine response to stress and apoptosis. […]
To conduct the western blots, antibodies were used against Akt ( 1/1000) (Cell Signaling), ERK1/2 ( 1/2000) (Cell Signaling), antiphospho-Akt ( 1/1000) and antiphospho-ERK ( 1/2000) (Cell Signaling). Total Akt and ERK 1/2 protein content (phosphorylated) were evaluated by blotting membranes with antiphospho-Akt ( 1/1000) and antiphospho-ERK antibodies ( 1/2000) (Cell Signaling). Akt or ERK phosphorylation was normalized to protein content in the same sample and expressed as % of change with respect to basal conditions, considering basal levels as 100%. Protein loading was evaluated by stripping and re-blotting membranes with b-actin antibody ( 1/1000) (Sigma Chemical Co.). […]

`C[C@@]1(C(=O)N[C@@H](CCC(=O)O)C(=O)O)CCCN1C(=O)CN` [Example G-2-MePE, Glycyl-L-2-methylprolyl-L-glutamic acid] (HELM PEPTIDE1{G.[C[C@@]1(C(=O)[*:2])CCCN1[*:1]].E}$$$$V2.0): the “number of PCNA positive cells in SVZ” value in test [1] (9 month old rats, 1.2 mg/kg i.p., p<0.005) was “significant increase”; in test [1] (18 month old rats, single i.p. 12 mg/kg, vs vehicle p<0.05) it was “significant increase”. In addition, the “nocturnal locomotor activity levels” value in the test on MeCP2 knockout mice is reported as “elevates these levels”. In addition, the “Akt phosphorylation compared to total Akt” value in the test with Akt was “significant reduction in Akt phosphorylation”.
